According to a compilation of properties of binary mixtures (doi:10.1021/acs.jced.9b01018):

Test: xn = mol fraction of the nth substance listed
Conditions: 100 kPa

CC(=O)[O-].CCCC[n+]1ccn(C)c1 + O
viscosity [mPa·s]
Conditions | 278.15 K | 283.15 K | 293.15 K | 298.15 K | 303.15 K | 313.15 K | 323.15 K | 333.15 K | 343.15 K | 353.15 K
x2 = 0.012 | 2390 | 1403 | 562 | 375 | 260 | 136.6 | 79.4 | – | 31.37 | 21.85
x2 = 0.0173 | 2429 | 1425 | 567 | 380 | 263 | – | 78 | 48.1 | 31.4 | 22.07
